Drawing on PubChem BioAssay AID1963973 (Molecular Pharmacology Branch, DTP, NCI, 2024), this text covers viability, T/C and IC50 for six molecules.

Where “and” joins values, the source holds several entries; their conditions need not be identical. Equal values may be shown once. Where only a bound is given, the exact number is not on record here.

For this experiment, the system named is 883617-216-R-J1-PDC tumor spheroids, viability. Briefly: Anticancer human tumor 883617-216-R-J1-PDC patient-derived bladder carcinoma cell line growth inhibition [PI3K]. The note with it: spheroids with HUVEC and MSC; for viability, T/C: stronger effect = lower value; for IC50: curve of compound. The source says:
Combinatorial screen of targeted agents with the PI3K inhibitors inavolisib, alpelisib, duvelisib, and copanlisib in multi-cell type tumor spheroids
A high-throughput screen of multi-cell type tumor spheroids was designed to identify active combinations of targeted small molecules and PI3K pathway inhibitors. Complex spheroids include a stromal component modeled by human endothelial cells (HUVEC) and fibroblasts modeled by human mesenchymal stem cells (MSCs). The concentration ranges selected for each drug and investigational agent were based upon clinically achievable concentrations if the clinical Cmax of the agent was known.
Compounds. The drugs and investigational agents: inavolisib (NSC800729), alpelisib (NSC765974), duvelisib (NSC772469), copanlisib (NSC816437), ipatasertib (NSC767898), afuresertib (NSC778305), talazoparib (NSC767125), sapanisertib (NSC764658), selumetinib (NSC741078), tovorafenib (DAY101, NSC766906), vemurafenib (NSC761431), ravoxertinib (NSC781343), sotorasib (NSC818433), MRTX1133 (NSC 836407), abemaciclib (NSC 768073), palbociclib (NSC758247), venetoclax (NSC 766270), SY5609 (NSC837396), enzalutamide (NSC755605), and darolutamide (NSC825331), were obtained from the National Cancer Institute (NCI) Developmental Therapeutics Program Chemical Repository. The FDA-approved anticancer drug set is available from the NCI Developmental Therapeutics Program. […] The stock solutions were prepared in dimethyl sulfoxide (DMSO, Sigma-Aldrich, St. Louis, MO, cat. D2650) at 800-fold the tested concentration and stored at -70 degrees C prior to their use. All drugs and investigational agents were tested over a range starting from a high concentration at or near the clinical Cmax and decreasing in half-log increments. If the clinical Cmax for an agent had not been determined, the highest concentration tested was 10 microM.
Cell Culture. All cells were maintained in an incubator at 37 degrees C and 5% CO2 with 95% humidity. The PDC lines were cultured according to standard operating procedures established by the NCI PDMR (https://pdmr.cancer.gov/sops/default.htm). All PDCs were thawed and cultured in Matrigel-coated flasks prepared with a working solution of 1X Ham's F-12 nutrient mix, without supplementation (Invitrogen, Waltham, MA, cat. 11765054), 100 U/mL penicillin-streptomycin (Invitrogen, cat. 15140122), and 2.5% Matrigel (Corning Inc., Corning, NY, cat. 354248) for the first three passages. The 354836-022-R-J1-PDC, 475296-252-R-J1-PDC, and 997726-040-R-J2-PDC lines were cultured in 6A media, which includes advanced DMEM/F-12 (Thermo Fisher Scientific, cat. 12634028), 10 mM HEPES (Thermo Fisher Scientific, cat. 15630080), 1X GlutaMAX supplement (Thermo Fisher Scientific, cat. 35050061), 0.1 mg/mL primocin (InvivoGen, San Diego, CA, cat. ant-pm-2), 10% defined fetal bovine serum, heat inactivated (HyClone Laboratories Inc., Logan, UT, cat. SH30070.03HI), 50% L-WRN conditioned media (ATCC, cat. CRL-3276), 1.25 mM N-Acetyl-L-cysteine (Sigma-Aldrich, cat. A9165), 10 mM nicotinamide (Sigma-Aldrich, cat. N0636), 1X B-27 supplement (Thermo Fisher Scientific, cat. 17504044), 1X N-2 supplement (Thermo Fisher Scientific, cat. 17502048), and 10 microM Y-27632 dihydrochloride (Tocris Bioscience, Bristol, United Kingdom, cat. 1254). The 624824-186-R-J2-PDC line was cultured in 6C/Colon 1B media, which includes all 6A media components plus 50 ng/mL human EGF recombinant protein (Thermo Fisher Scientific, cat. PHG0311). […]
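Further: spheroids exposed to agents for 7 days before the viability read.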

Consider `C#Cc1c(F)ccc2cc(O)cc(-c3ncc4c(N5CC6CCC(C5)N6)nc(OCC56CCCN5CC(F)C6)nc4c3F)c12` (stereo not drawn), for which the IC50 was > 10 µM. Further, under “compound 0.0316 µM”, the viability, T/C was 99.5% [middle of 4 runs]. Further, the viability, T/C (compound 0.1 µM) was 95.7% [middle of 4 runs]. Where the note is “compound 0.316 µM”, the viability, T/C was 100% [middle of 4 runs]. Also, the viability, T/C (compound 1 µM) is 88% [middle of 4 runs]. Further, the viability, T/C (compound 3.16 µM) is 80.5% (2×) and 102% and 88.1%. For the same molecule, the viability, T/C (compound 10 µM) is 65.8% [middle of 4 runs].

Take `C=CC(=O)N1CCN(c2nc(=O)n(-c3c(C)ccnc3C(C)C)c3nc(-c4c(O)cccc4F)c(F)cc23)C(C)C1` (stereo not drawn): the viability, T/C (compound 0.0316 µM) was 61.8% [middle of 4 runs]; the viability, T/C (compound 0.1 µM) was 48% [middle of 4 runs]; the viability, T/C (compound 0.316 µM) was 51.2% [middle of 4 runs]; the viability, T/C (compound 1 µM) was 58.9% [middle of 4 runs]; the viability, T/C (compound 3.16 µM) is 74.7% [middle of 4 runs]; the viability, T/C (compound 10 µM) is 66.4% [middle of 4 runs].

As to `CC(Cn1ccc(-c2ccc(C#N)c(Cl)c2)n1)NC(=O)c1cc(C(C)O)[nH]n1` (stereo not drawn), the IC50 is > 10 µM. The viability, T/C (compound 0.1 µM) was 90.8% [middle of 4 runs]. For the same molecule, for the setting “compound 0.316 µM”, the viability, T/C is 104% [middle of 4 runs]. Besides, the viability, T/C (compound 1 µM) was 95.5% [middle of 4 runs]. Also, the viability, T/C (compound 3.16 µM) was 110% [middle of 4 runs]. Further, the viability, T/C (compound 10 µM) is 102% [middle of 4 runs].

As for `CC1(C)CCC(Nc2ncc(C(F)(F)F)c(-c3c[nH]c4c(P(C)(C)=O)c(C#N)ccc34)n2)CN1` (stereo not drawn), the half-inhibitory concentration (IC50) is < 0.0316 µM. Also, the viability, T/C (compound 0.0316 µM) was 38% [middle of 4 runs]. In addition, where the note is “compound 0.1 µM”, the viability, T/C is 31.7% [middle of 4 runs]. Further, the viability, T/C (compound 0.316 µM) was 28.7% [middle of 4 runs]. In addition, the viability, T/C (compound 1 µM) was 30% [middle of 4 runs]. In addition, under “compound 3.16 µM”, the viability, T/C is 16.9% [middle of 4 runs]. Further, the viability, T/C (compound 10 µM) was 0.37% [middle of 4 runs].

For the molecule `C[C@@H](NC(=O)c1ncnc(N)c1Cl)c1ncc(C(=O)Nc2cc(C(F)(F)F)c(Cl)cn2)s1`, the IC50 is > 10 µM. Also, the viability, T/C (compound 0.1 µM) was 96.9% [middle of 4 runs]. Also, the viability, T/C (compound 0.316 µM) was 88.3% [middle of 4 runs]. The viability, T/C (compound 1 µM) was 96.5% [middle of 4 runs]. Besides, the viability, T/C (compound 3.16 µM) is 93.2% (2×) and 95.3% and 100%. For the same molecule, under “compound 10 µM”, the viability, T/C was 73% [middle of 4 runs].

In the case of `Cn1ncc(Cl)c1-c1cc(C(=O)NC(CN)Cc2cccc(F)c2)sc1Cl` (stereo not drawn), the IC50 is 571 nM [middle of 4 runs]. For the same molecule, the viability, T/C (compound 0.0316 µM) is 98.2% [middle of 4 runs]. For the same molecule, the viability, T/C (compound 0.1 µM) was 85% [middle of 4 runs]. The viability, T/C (compound 0.316 µM) is 63.8% [middle of 4 runs]. Further, the viability, T/C (compound 1 µM) is 34.5% [middle of 4 runs]. Besides, where the note is “compound 3.16 µM”, the viability, T/C was 13.8% [middle of 4 runs].
